Values quoted from earlier work in patent US6797722B2 (Sigma-Tau Industrie Farmaceutiche Riunite S.p.A., priority 2002, dated 2004).

Settings: oral route

For `CCc1ccccc1-c1n[nH]c(-c2cccc(OC)c2)n1` [ST1959, 3-(2-ethylphenyl)-5-(3-methoxyphenyl)-1H-1,2,4-triazole], the hepatic first-pass effect is given as “rapid and extensive hepatic first-pass effect leading to the formation of inactive metabolites”.
